Counter-ions that a name gives are not always drawn.
Tests used:
human whole blood = assay: Ex vivo assay testing inhibitory activity in human whole blood after stimulation with calcium ionophore (LTB4 ELISA); assay type: cell-based; conditions: Ionomycin 20 μM, read-out: hWBIC50;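 also: heparinized human blood preincubated 15 min at 37 °C with compound, then ionomycin-stimulated for 30 min, LTB4 in plasma supernatant quantified by ELISA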
Experimental: (2) Ex vivo assay testing inhibitory activity in human whole blood after stimulation with calcium ionophor.
Human blood was collected in heparin-containing Vacutainer tubes. […] Then 4 μl of a series of compound dilutions (in DMSO) were added, followed by a 15 min incubation at 37° C. with gentle shaking. After that, blood samples were stimulated by adding Ionomycin (Calbiochem) to a final concentration of 20 μM. After another incubation at 37° C. for 30 min, samples were centrifuged for 5 min at 1800 g and 4° C. Supernatants were taken and LTB4 concentrations were determined using a commercially available enzyme-linked immunosobentassay (R&D Systems, Minneapolis, Minn.) according to the manufacturer's instructions.

human LTA4 hydrolase = biological target: T1, human LTA4 hydrolase (Homo sapiens, UniProt P09960); assay: In vitro assay testing inhibitory activity against purified recombinant human LTA4 hydrolase (LTB4 formed, LC-MS/MS); assay type: biochemical; conditions: recombinant human LTA4 hydrolase 200 nM, LTA4 2 μM; read-out: AvgIC50;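 also: 200 nM enzyme preincubated 10 min at room temperature with serial inhibitor dilutions in pH 8.0 Tris buffer with BSA and 10% DMSO, then 2 µM LTA4 added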
T1 construct: A human LTA4 hydrolase full-length cDNA clone (NM 000895) was purchased; His tag (6xHis of vector pDEST17); made in house; host or cells: Escherichia coli BL21-AI
T1 sequence (P09960 1-611): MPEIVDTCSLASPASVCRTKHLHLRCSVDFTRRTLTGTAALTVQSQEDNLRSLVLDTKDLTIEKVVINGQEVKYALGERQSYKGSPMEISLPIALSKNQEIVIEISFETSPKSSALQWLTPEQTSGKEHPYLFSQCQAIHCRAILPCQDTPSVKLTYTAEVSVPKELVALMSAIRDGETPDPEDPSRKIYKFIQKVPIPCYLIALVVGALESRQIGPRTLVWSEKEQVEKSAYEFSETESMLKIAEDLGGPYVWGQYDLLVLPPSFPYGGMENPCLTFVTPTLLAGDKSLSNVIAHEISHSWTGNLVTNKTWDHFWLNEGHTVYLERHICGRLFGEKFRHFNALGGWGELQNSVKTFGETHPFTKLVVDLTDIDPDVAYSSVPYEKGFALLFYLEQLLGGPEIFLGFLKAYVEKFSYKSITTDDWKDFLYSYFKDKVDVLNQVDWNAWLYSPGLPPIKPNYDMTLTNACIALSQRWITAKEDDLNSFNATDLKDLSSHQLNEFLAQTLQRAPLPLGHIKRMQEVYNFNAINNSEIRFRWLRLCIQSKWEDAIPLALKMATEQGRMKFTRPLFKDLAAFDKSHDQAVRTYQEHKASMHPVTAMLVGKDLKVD

SMILES | IC50 (human whole blood) | IC50 (human LTA4 hydrolase)
O=C(O)CCCN1CCC[C@@H]1COc1ccc(Oc2ccc(C(F)(F)F)cc2)cc1 [Example 30, (R)-2-[4-(4-trifluoromethyl-phenoxy)-phenoxymethyl]-pyrrolidine-1-yl}butyric acid sodium salt] | < 5 µM | < 5 µM
Clc1ccc(Cc2ccc(OC[C@@H]3CCCN3)cc2)cc1 [Example 64, (S)-2-[4-(4-Chloro-benzyl)-phenoxymethyl]-pyrrolidine hydrochloride] | < 5 µM | < 5 µM
c1cnn(-c2ccc(Oc3ccc(OC[C@H]4CCCN4)cc3)cc2)c1 [Example 133, 1-{4-[4-((R)-1-Pyrrolidin-2-ylmethoxy)-phenoxy]-phenyl}-1H-pyrazole, hydrogen chloride salt] | < 5 µM | 5 to 20 µM
O=C(O)CCCN1CCC[C@@H]1COc1ccc(Cc2ccc(-c3cccs3)cc2)cc1 [Example 113, 4-{(R)-2-[4-(4-Thiophen-2-yl-benzyl)-phenoxymethyl]-pyrrolidin-1-yl}-butyric acid hydrogen chloride salt] | < 5 µM | < 5 µM
O=C(O)CCCN1CCC[C@@H]1COc1ccc(Oc2ccc(-n3cccn3)cc2)cc1 [Example 134, 4-{(R)-2-[4-(4-Pyrazol-1-yl-phenoxy)-phenoxymethyl]-pyrrolidin-1-yl}-butyric acid] | < 5 µM | 5 to 20 µM
FC(F)(F)c1ccc(Oc2ccc(OC[C@H]3CCCN3)cc2)cc1 [Example 16, (R)-2-[4-(4-Trifluoromethyl-phenoxy)-phenoxymethyl]-pyrrolidine hydrochloride] | < 5 µM | < 5 µM
O=C(O)CCCN1CCC[C@@H]1COc1ccc(Cc2ccccc2)cc1 [Example 10, 4-[(R)-2-(4-benzyl-phenoxymethyl)-pyrrolidin-1-yl]-butylic acid hydrochloride] | < 5 µM | < 5 µM
c1ccc2sc(Cc3ccc(OC[C@H]4CCCN4)cc3)nc2c1 [Example 104, 2-[4-((R)-1-Pyrrolidin-2-ylmethoxy)-benzyl]-benzothiazole-hydrogen chloride salt] | < 5 µM | < 5 µM
NC(=O)CCCN1CCC[C@H]1COc1ccc(Oc2ccc(Cl)cc2)cc1 [Example 23, 4-{(S)-2-[4-(4-Chloro-phenoxy)-phenoxymethyl]-pyrrolidin-1-yl}-butyramide] | < 5 µM | < 5 µM
Ic1ccc(Cc2ccc(OC[C@H]3CCCN3)cc2)cc1 [Example 106, (R)-2-[4-(4-Iodo-benzyl)-phenoxymethyl]-pyrrolidine Hydrogen chloride salt] | < 5 µM | < 5 µM
c1ccc(Oc2ccc(OC[C@H]3CCCCN3)cc2)cc1 [Example 50, (R)-2-(4-Phenoxy-phenoxymethyl)-piperidine hydrochloride] | < 5 µM | < 5 µM
O=C(O)CCN1CCC[C@@H]1COc1ccc(Cc2ccccc2)cc1 [Example 9, 3-[(R)-2-(4-benzyl-phenoxymethyl)-pyrrolidin-1-yl]-propionic acid hydrochloride] | < 5 µM | < 5 µM
O=C(O)CCCN1CCC[C@H]1COc1ccc(Cc2ccc(-c3ccsc3)cc2)cc1 [Example 169, 4-{(S)-2-[4-(4-Thiophen-3-yl-benzyl)-phenoxymethyl]-pyrrolidin-1-yl}-butyric acid sodium salt] | < 5 µM | < 5 µM
Clc1ccc(Oc2ccc(OC[C@H]3CCCN3)cc2)cc1 [Example 13, (R)-2-[4-(4-Chloro-phenoxy)-phenoxymethyl]-pyrrolidine hydrochloride] | < 5 µM | < 5 µM
COC(=O)CCCN1CCC[C@@H]1COc1ccc(Cc2ccccc2)cc1 [Example 8, 4-[(R)-2-(4-benzyl-phenoxymethyl)-pyrrolidin-1-yl]-butyric acid methyl ester] | < 5 µM | < 5 µM
O=C(O)CCCN1CCC[C@H]1COc1ccc(Oc2ccc(Cl)cc2)cc1 [Example 22, 4-{(S)-2-[4-(4-Chloro-phenoxy)-phenoxymethyl]-pyrrolidin-1-yl}-butyric acid hydrochloride] | < 5 µM | 
